Experimental data taken from patent US20250115583A1, “BICYCLIC INDAZOLE GLUCOCORTICOID RECEPTOR ANTAGONISTS” (Corcept Therapeutics Incorporated, priority 2021, published 2025).

These molecules were tested against glucocorticoid receptor (Homo sapiens (Human), UniProt P04150) (assay: HepG2 TAT assay: inhibition of dexamethasone-induced tyrosine aminotransferase (TAT) activity). Settings: HepG2 cells, challenge of 100 nM dexamethasone, 18-24 hr; IC50 converted to Ki by Cheng and Prusoff equation.
Assay type: cell-based
Procedure, shortened: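 Cells lysed 15 min at 4 °C; TAT enzyme reaction 2 h at 37 °C, stopped with KOH, 30 min further at 37 °C. Inhibition fitted to 4-parameter logistic.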

Chain of glucocorticoid receptor (P04150 whole entry): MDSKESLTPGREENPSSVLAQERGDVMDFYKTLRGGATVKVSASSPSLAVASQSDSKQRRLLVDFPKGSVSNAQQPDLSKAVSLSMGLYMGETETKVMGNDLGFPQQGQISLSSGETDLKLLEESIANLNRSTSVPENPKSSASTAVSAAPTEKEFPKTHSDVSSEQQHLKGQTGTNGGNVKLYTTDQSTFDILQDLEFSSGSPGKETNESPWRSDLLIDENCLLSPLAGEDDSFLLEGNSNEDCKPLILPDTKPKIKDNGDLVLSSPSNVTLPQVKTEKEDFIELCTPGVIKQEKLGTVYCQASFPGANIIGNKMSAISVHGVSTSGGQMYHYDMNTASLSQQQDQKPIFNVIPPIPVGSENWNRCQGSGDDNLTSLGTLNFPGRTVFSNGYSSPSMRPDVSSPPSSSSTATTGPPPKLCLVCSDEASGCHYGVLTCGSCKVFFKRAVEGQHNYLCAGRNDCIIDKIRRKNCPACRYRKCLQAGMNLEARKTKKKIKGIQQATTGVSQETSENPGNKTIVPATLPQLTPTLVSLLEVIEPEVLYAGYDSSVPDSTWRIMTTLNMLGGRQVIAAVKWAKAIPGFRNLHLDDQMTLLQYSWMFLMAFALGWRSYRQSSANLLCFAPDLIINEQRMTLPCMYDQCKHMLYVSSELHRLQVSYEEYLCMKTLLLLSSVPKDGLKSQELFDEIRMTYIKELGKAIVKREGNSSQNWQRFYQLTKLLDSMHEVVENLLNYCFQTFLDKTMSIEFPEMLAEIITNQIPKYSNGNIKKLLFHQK

Compound | Ki [µM]
Cc1cc2c(cnn2-c2ccc(F)cc2)cc1[C@@]12CN(C(=O)c3nccs3)C[C@@H]1[C@H]2c1ccccc1 (stereo in doubt) [Example 158, (1-(1-(4-fluorophenyl)-6-methyl-1H-indazol-5-yl)-6-phenyl-3-azabicyclo[3.1.0]hexan-3-yl)(thiazol-2-yl)methanone] | 0.012
Cc1cc2c(cnn2-c2ccc(F)cc2)cc1[C@@]12CN(C(=O)c3ccccc3S(C)(=O)=O)C[C@@H]1[C@H]2c1ccccc1 (stereo in doubt) [Example 159, (1-(1-(4-fluorophenyl)-6-methyl-1H-indazol-5-yl)-6-phenyl-3-azabicyclo[3.1.0]hexan-3-yl)(2-(methylsulfonyl)phenyl)methanone] | 0.024
Cc1cc2c(cnn2-c2ccc(F)cc2)cc1[C@@]12CN(C(=O)C3CCOCC3)C[C@@H]1[C@H]2c1ccccc1 (stereo in doubt) [Example 160, (1-(1-(4-fluorophenyl)-6-methyl-1H-indazol-5-yl)-6-phenyl-3-azabicyclo[3.1.0]hexan-3-yl)(tetrahydro-2H-pyran-4-yl)methanone] | 0.07
Cc1cc2c(cnn2-c2ccc(F)cc2)cc1[C@@]12CN(C(=O)c3ccnn3C)C[C@@H]1[C@H]2c1ccccc1 (stereo in doubt) [Example 161, (1-(1-(4-fluorophenyl)-6-methyl-1H-indazol-5-yl)-6-phenyl-3-azabicyclo[3.1.0]hexan-3-yl)(1-methyl-1H-pyrazol-5-yl)methanone] | 0.061
Cc1cc2c(cnn2-c2ccc(F)cc2)cc1[C@@]12CN(C(=O)c3cccc(C(C)C)n3)C[C@@H]1[C@H]2c1ccccc1 (stereo in doubt) [Example 166, (1-(1-(4-fluorophenyl)-6-methyl-1H-indazol-5-yl)-6-phenyl-3-azabicyclo[3.1.0]hexan-3-yl)(6-isopropylpyridin-2-yl)methanone] | 0.047
Cc1cc2c(cnn2-c2ccc(F)cc2)cc1[C@@]12CN(C(=O)c3ccc(C(F)(F)F)cn3)C[C@@H]1[C@H]2c1ccccc1 (stereo in doubt) [Example 168, (1-(1-(4-fluorophenyl)-6-methyl-1H-indazol-5-yl)-6-phenyl-3-azabicyclo[3.1.0]hexan-3-yl)(5-(trifluoromethyl)pyridin-2-yl)methanone] | 0.039
Cc1csc(C(=O)N2C[C@@H]3[C@@H](c4ccccc4)[C@]3(c3cc4cnn(-c5ccc(F)cc5)c4cc3C)C2)n1 (stereo in doubt) [Example 175, (1-(1-(4-fluorophenyl)-6-methyl-1H-indazol-5-yl)-6-phenyl-3-azabicyclo[3.1.0]hexan-3-yl)(4-methylthiazol-2-yl)methanone] | 0.013
Cc1cc2c(cnn2-c2ccc(F)cc2)cc1[C@@]12CN(Cc3ccccn3)C[C@@H]1[C@H]2c1ccccc1 (stereo in doubt) [Example 179, 1-(4-fluorophenyl)-6-methyl-5-(6-phenyl-3-(pyridin-2-ylmethyl)-3-azabicyclo[3.1.0]hexan-1-yl)-1H-indazole] | 0.048
Cc1cc2c(cnn2-c2ccc(F)cc2)cc1[C@@]12CN(C(=O)c3ccccc3)C[C@@H]1[C@H]2CN1CCOCC1 (stereo in doubt) [Example 180, (1-(1-(4-fluorophenyl)-6-methyl-1H-indazol-5-yl)-6-(morpholinomethyl)-3-azabicyclo[3.1.0]hexan-3-yl)(phenyl)methanone] | 0.6
Cc1cc2c(cnn2-c2ccc(F)cc2)cc1[C@@]12CN(C(=O)c3ccccc3)C[C@@H]1[C@]2(C)c1ccccc1 (stereo in doubt) [Example 182, (1-(1-(4-fluorophenyl)-6-methyl-1H-indazol-5-yl)-6-methyl-6-phenyl-3-azabicyclo[3.1.0]hexan-3-yl)(phenyl)methanone] | 0.18
Cc1cc2c(cnn2-c2ccc(F)cc2)cc1[C@@]12CN(C(=O)c3ccccc3)C[C@@H]1[C@@]2(C)c1ccccc1 (stereo in doubt) [Example 183, (1-(1-(4-fluorophenyl)-6-methyl-1H-indazol-5-yl)-6-methyl-6-phenyl-3-azabicyclo[3.1.0]hexan-3-yl)(phenyl)methanone] | 0.037
Cc1cc2c(cnn2-c2ccc(F)cc2)cc1[C@@]12CN(c3ncccn3)C[C@@H]1[C@H]2c1ccccc1 (stereo in doubt) [Example 185, 1-(4-fluorophenyl)-6-methyl-5-(6-phenyl-3-(pyrimidin-2-yl)-3-azabicyclo[3.1.0]hexan-1-yl)-1H-indazole] | 0.1
Cc1cc2c(cnn2-c2ccc(F)cc2)cc1C12CN(S(=O)(=O)c3cnn(C)c3)CC1CC(O)(c1nccs1)C2 (stereo not drawn) [Example 2, 3a-(1-(4-fluorophenyl)-6-methyl-1H-indazol-5-yl)-2-((1-methyl-1H-pyrazol-4-yl)sulfonyl)-5-(thiazol-2-yl)octahydrocyclopenta[c]pyrrol-5-ol] | 0.49
COC1(c2nccs2)CC2CN(S(=O)(=O)c3cnn(C)c3)CC2(c2cc3cnn(-c4ccc(F)cc4)c3cc2C)C1 (stereo not drawn) [Example 3, 2-(3a-(1-(4-fluorophenyl)-6-methyl-1H-indazol-5-yl)-5-methoxy-2-((1-methyl-1H-pyrazol-4-yl)sulfonyl)octahydrocyclopenta[c]pyrrol-5-yl)thiazole] | 0.29

Further lines, results first:

Ki [µM] | Compound
0.029 | Cc1cc2c(cnn2-c2ccc(F)cc2)cc1[C@@]12CN(C(=O)c3ncccc3C)C[C@@H]1[C@H]2c1ccccc1 (stereo in doubt) [Example 162, (1-(1-(4-fluorophenyl)-6-methyl-1H-indazol-5-yl)-6-phenyl-3-azabicyclo[3.1.0]hexan-3-yl)(3-methylpyridin-2-yl)methanone]
0.0072 | Cc1cc2c(cnn2-c2ccc(F)cc2)cc1[C@@]12CN(C(=O)c3cccc(C#N)n3)C[C@@H]1[C@H]2c1ccccc1 (stereo in doubt) [Example 164, 6-(1-(1-(4-fluorophenyl)-6-methyl-1H-indazol-5-yl)-6-phenyl-3-azabicyclo[3.1.0]hexane-3-carbonyl)picolinonitrile]
0.035 | COc1ccnc(C(=O)N2C[C@@H]3[C@@H](c4ccccc4)[C@]3(c3cc4cnn(-c5ccc(F)cc5)c4cc3C)C2)c1 (stereo in doubt) [Example 169, (1-(1-(4-fluorophenyl)-6-methyl-1H-indazol-5-yl)-6-phenyl-3-azabicyclo[3.1.0]hexan-3-yl)(4-methoxypyridin-2-yl)methanone]
0.036 | Cc1cc2c(cnn2-c2ccc(F)cc2)cc1[C@@]12CN(C(=O)c3ncccn3)C[C@@H]1[C@H]2c1ccccc1 (stereo in doubt) [Example 171, (1-(1-(4-fluorophenyl)-6-methyl-1H-indazol-5-yl)-6-phenyl-3-azabicyclo[3.1.0]hexan-3-yl)(pyrimidin-2-yl)methanone]
0.13 | Cc1cc2c(cnn2-c2ccc(F)cc2)cc1[C@@]12CN(C(=O)c3ccccc3)C[C@@H]1[C@H]2c1cccnc1 (stereo in doubt) [Example 173, (1-(1-(4-fluorophenyl)-6-methyl-1H-indazol-5-yl)-6-(pyridin-3-yl)-3-azabicyclo[3.1.0]hexan-3-yl)(phenyl)methanone]
0.039 | Cc1cc2c(cnn2-c2ccc(F)cc2)cc1[C@@]12CN(C(=O)c3ccccc3N3CCOCC3)C[C@@H]1[C@H]2c1ccccc1 (stereo in doubt) [Example 174, (1-(1-(4-fluorophenyl)-6-methyl-1H-indazol-5-yl)-6-phenyl-3-azabicyclo[3.1.0]hexan-3-yl)(2-morpholinophenyl)methanone]
0.045 | Cc1cnc(C(=O)N2C[C@@H]3[C@@H](c4ccccc4)[C@]3(c3cc4cnn(-c5ccc(F)cc5)c4cc3C)C2)s1 (stereo in doubt) [Example 176, (1-(1-(4-fluorophenyl)-6-methyl-1H-indazol-5-yl)-6-phenyl-3-azabicyclo[3.1.0]hexan-3-yl)(5-methylthiazol-2-yl)methanone]
0.023 | Cc1cc2c(cnn2-c2ccc(F)cc2)cc1[C@@]12CN(C(=O)c3cc(C)n(C)n3)C[C@@H]1[C@H]2c1ccccc1 (stereo in doubt) [Example 177, (1,5-dimethyl-1H-pyrazol-3-yl)(1-(1-(4-fluorophenyl)-6-methyl-1H-indazol-5-yl)-6-phenyl-3-azabicyclo[3.1.0]hexan-3-yl)methanone]
0.86 | Cc1cc2c(cnn2-c2ccc(F)cc2)cc1[C@@]12CN(C(=O)c3ccccc3)C[C@@H]1[C@H]2Cc1ccccc1 (stereo in doubt) [Example 184, (6-benzyl-1-(1-(4-fluorophenyl)-6-methyl-1H-indazol-5-yl)-3-azabicyclo[3.1.0]hexan-3-yl)(phenyl)methanone]
0.63 | Cc1cc2c(cnn2-c2ccc(F)cc2)cc1[C@]12CN(C(=O)c3ccccc3)C[C@H]1[C@H]2c1ccccn1 (stereo in doubt) [Example 186, (1-(1-(4-fluorophenyl)-6-methyl-1H-indazol-5-yl)-6-(pyridin-2-yl)-3-azabicyclo[3.1.0]hexan-3-yl)(phenyl)methanone]
0.37 | Cc1cc2c(cnn2-c2ccc(F)cc2)cc1C12CC(=O)CC1CN(C(=O)OC(C)(C)C)C2 (stereo not drawn) [Example 1, tert-butyl 3a-(1-(4-fluorophenyl)-6-methyl-1H-indazol-5-yl)-5-oxohexahydrocyclopenta[c]pyrrole-2(1H)-carboxylate]
0.54 | Cc1cc2c(cnn2-c2ccc(F)cc2)cc1C12CN(S(=O)(=O)c3cnn(C)c3)CC1CC(F)(c1ccccc1)C2 (stereo not drawn) [Example 4, 5-(5-fluoro-2-((1-methyl-1H-pyrazol-4-yl)sulfonyl)-5-phenylhexahydrocyclopenta[c]pyrrol-3a(1H)-yl)-1-(4-fluorophenyl)-6-methyl-1H-indazole]
0.24 | CO[C@]1(c2ccccc2)C[C@@H]2CN(S(=O)(=O)c3cnn(C)c3)C[C@]2(c2cc3cnn(-c4ccc(F)cc4)c3cc2C)C1 [Example 5, 1-(4-fluorophenyl)-5-((3aR,5R,6aS)-5-methoxy-2-((1-methyl-1H-pyrazol-4-yl)sulfonyl)-5-phenylhexahydrocyclopenta[c]pyrrol-3a(1H)-yl)-6-methyl-1H-indazole]
